From patent EP0103830A2, “Phenylethylemine derivatires as growth stimulators” (priority 1982, dated 1984)
Structures can show the parent of a compound that is named as a salt.

Experiments:
Assay type in all cases: in vivo
[1] = Feeding trial (Beispiel 3): feed intake, weight gain, feed conversion; conditions: 25 ppm in feed, n = 6, whole trial period (13 Tage)
Excerpt: (§1) Die Tiere wurden 2 Tage an die neuen Haltungsbedingungen adaptiert, wobei generell das Versuchsfutter ohne Wirkstoffzusatz verabreicht wurde. Am dritten Versuchstag wurden die Tiere randomisiert und anschließend die Versuchsgruppen so gebildet, daß sowohl die Mittelwerte als auch die Streuungen in den Körpergewichten zwischen den Gruppen gleich waren. Nach einer 5-tägigen Vorperiode wurde eine 8-tägige Hauptperiode durchgeführt, in denen Futteraufnahme, Zuwachs und Futterverwertung bestimmt wurden.
(§2) Es wurden folgende Behandlungen geprüft: • b 1) Negativkontrolle (n = 12) • b 2) 25 ppm (Wirkstoff Herstellungsbeispiel 1) (n = 6)

[2] = Feeding trial (Beispiel 1): feed intake, weight gain, feed conversion; conditions: 25 ppm in feed, n = 6, whole trial period (13 Tage), Ratten weiblich SPF Wistar
Excerpt: as §1, §2

[3] = Feeding trial (Beispiel 2): feed intake, weight gain, feed conversion; conditions: 0,2 ppm in feed, whole trial period (12 Tage)
Excerpt: as §1, with “7-tägige” for “8-tägige”
Es wurden folgende Behandlungen geprüft: • b 1) Negativkontrolle (n = 24) • b 2) 0,2 ppm (Wirkstoff Herstellungsbeispiel 1)

[4] = Feeding trial in rats over 15 days (Beispiel 7), results relative to control; conditions: 25 ppm in feed, 15 Tage, Ratten weiblich SPF-Wistar; Kontrolle = 100 %
Excerpt: Vor Beginn des Fütterungsversuches wurden die Ratten zwei Tage lang an die neuen Haltungsbedingungen adaptiert, wobei generell das Versuchsfutter ohne Wirkstoffzusatz verabreicht wurde. Am dritten Versuchstag wurden die Tiere randomisiert und anschließend die Versuchsgruppen so gebildet, daß sowohl die Mittelwerte als auch die Streuungen in den Körpergewichten zwischen den Gruppen gleich waren.
Der Fütterungsversuch, in dem die Futteraufnahme, der Körpergewichtszuwachs und die Futterverwertung individuell bestimmt wurden, erstreckte sich über 15 Tage.
Als Wirkstoffe wurden dem Futter untergemischt: • 1-(3,4-Dihydroxyphenyl)-2-[1-methyl-2-(3,4-methylendioxyphenyl)ethylamino]ethanolhydrochlorid (= Verbindung I), • 2-Amino-1-(3-hydroxyphenyl)ethanolhydrochlorid (= Verbindung II), • 2-Amino-1-(3-hydroxyphenyl)propanolh^ydrogentartrat (= Verbindung III), • 1-(4-Hydroxyphenyl)-2-(1-methyl-3-phenylpropylamino)-propanolhydrochlorid (= Verbindung IV), • 2-Ethylamino-1-(3-hydroxyphenyl)ethanolhydrochlorid (= Verbindung V), • 1- (3,5-Dihydroxyphenyl) -2- (3-phenylpropylamino) propanol als Salz der 4-Aminobenzoesäure (= Verbindung VI), • 1-(3-Hydroxyphenyl)-2-(1,1-dimethyl-2-phenylethylamino)-ethanol als Salz der 4-Aminobenzoesäure (= Verbindung VII), • 5-[2-[1,1-Dimethylethyl)amino]-1-hydroxyethyl]-2-hydroxy- benzamid . HCl (= Verbindung VIII)
Ratten, weiblich, SPF-Wistar 36 Tiere/Versuch Gewicht: 90 bis 150 g Futter: Haltungsdiät für Ratten mit folgender Zusammensetzung: […]

[5] = Feeding trial (Beispiel 4): feed intake, weight gain, feed conversion; conditions: 25 ppm in feed, n = 6, whole trial period (13 Tage)
Excerpt: as §1
(§3) Es wurden folgende Behandlungen geprüft: • b 1) Negativkontrolle (n = 12) • b 2) 25 ppm (Wirkstoff Herstellungsbeispiel 2) (n = 6)

[6] = Feeding trial (Beispiel 6): feed intake, weight gain, feed conversion; conditions: 25 ppm in feed, n = 6, whole trial period (13 Tage)
Excerpt: as §1, §3

[7] = Feeding trial (Beispiel 5): feed intake, weight gain, feed conversion; conditions: 25 ppm in feed, n = 6, whole trial period (13 Tage)
Excerpt: as §1, §3

For `COc1ccc(C(O)CNC(C)(C)C)cc1` (stereo not drawn) [Herstellungsbeispiel 1, 2-t-Butylamino-1-(4-methoxyphenyl)-ethanol], the Futterverwertung ([1]; Negativkontrolle 5,04) was 4,41 g/g, the Zuwachs ([1]; Negativkontrolle 37,0) was 42,4 g and the Futteraufnahme ([1]; Negativkontrolle 182) was 187 g. The Futterverwertung ([2]; Negativkontrolle 5,62) was 4,03 g/g, the Zuwachs ([2]; Negativkontrolle 27,9) was 43,7 g and the Futteraufnahme ([2]; Negativkontrolle 153) was 175 g. The Futterverwertung ([3]; Negativkontrolle 4,88) was 4,21 g/g, the Zuwachs ([3]; Negativkontrolle 41,0) was 50,5 g and the Futteraufnahme ([3]; Negativkontrolle 200) was 213 g.

With `CC(C)(C)NCC(O)c1ccc(O)c(C(N)=O)c1` (stereo not drawn) [Verbindung VIII, 5-[2-[(1,1-Dimethylethyl)amino]-1-hydroxyethyl]-2-hydroxy-benzamid . HC1] the Futteraufnahme [4] was 106%, the Futterverwertung [4] was 84,8% and the Zuwachs [4] was 125,0%.

In the case of `CC(CCc1ccccc1)NC(C)C(O)c1ccc(O)cc1` (stereo not drawn) [Verbindung IV, 1-(4-Hydroxyphenyl)-2-(1-methyl-3-phenylpropylamino)-propanolhydrochlorid], the Futteraufnahme [4] is reported as 101,7%, the Futterverwertung [4] is reported as 96,9% and the Zuwachs [4] is reported as 105%.

In the case of `NCC(O)c1cccc(O)c1` (stereo not drawn) [Verbindung II, 2-Amino-1-(3-hydroxyphenyl)ethanolhydrochlorid], the Futteraufnahme [4] is reported as 98%, the Futterverwertung [4] is reported as 91,6% and the Zuwachs [4] is reported as 107%.

For `CCNCC(O)c1cccc(O)c1` (stereo not drawn) [Verbindung V, 2-Ethylamino-1-(3-hydroxyphenyl)ethanolhydrochlorid], the Futteraufnahme [4] was 104%, the Futterverwertung [4] was 90,4% and the Zuwachs [4] was 115%.

With `CC(Cc1ccc2c(c1)OCO2)NCC(O)c1ccc(O)c(O)c1` (stereo not drawn) [Verbindung I, 1-(3,4-Dihydroxyphenyl)-2-[1-methyl-2-(3,4-methylendioxyphenyl)ethylamino]ethanolhydrochlorid] the Futteraufnahme [4] was 104%, the Futterverwertung [4] was 92,9% and the Zuwachs [4] was 112%.

With `CC(C)(C)NCC(O)c1cc(Br)c(O)c(Br)c1` (stereo not drawn) [Herstellungsbeispiel 2] the Futterverwertung ([5]; Negativkontrolle 4,75) was 4,41 g/g, the Zuwachs ([5]; Negativkontrolle 41,3) was 45,1 g and the Futteraufnahme ([5]; Negativkontrolle 196) was 199 g. The Futterverwertung ([6]; Negativkontrolle 5,04) was 4,36 g/g, the Zuwachs ([6]; Negativkontrolle 37,0) was 43,2 g and the Futteraufnahme ([6]; Negativkontrolle 182) was 183 g. The Futterverwertung ([7]; Negativkontrolle 5,62) was 3,96 g/g, the Zuwachs ([7]; Negativkontrolle 27,9) was 43,4 g and the Futteraufnahme ([7]; Negativkontrolle 152) was 171 g.

For `CC(N)C(O)c1cccc(O)c1` (stereo not drawn) [Verbindung III, 2-Amino-1-(3-hydroxyphenyl)propanolhydrogentartrat], the Futteraufnahme [4] was 99%, the Futterverwertung [4] was 96,1% and the Zuwachs [4] was 103%.
